What was measured:
Test in all cases: Kinase selectivity, DiscoverX scanMAX Kinase assay panel (% control)
Assay type in all cases: binding
[1] = target: T1, kinases of the scanMAX Kinase assay panel (Homo sapiens, UniProt P51956); settings: NEK3; 1 uM
T1 construct: purchased DiscoverX Co. (contract measurement) scanMAX Kinase assay panel
T1 sequence (P51956 1-506): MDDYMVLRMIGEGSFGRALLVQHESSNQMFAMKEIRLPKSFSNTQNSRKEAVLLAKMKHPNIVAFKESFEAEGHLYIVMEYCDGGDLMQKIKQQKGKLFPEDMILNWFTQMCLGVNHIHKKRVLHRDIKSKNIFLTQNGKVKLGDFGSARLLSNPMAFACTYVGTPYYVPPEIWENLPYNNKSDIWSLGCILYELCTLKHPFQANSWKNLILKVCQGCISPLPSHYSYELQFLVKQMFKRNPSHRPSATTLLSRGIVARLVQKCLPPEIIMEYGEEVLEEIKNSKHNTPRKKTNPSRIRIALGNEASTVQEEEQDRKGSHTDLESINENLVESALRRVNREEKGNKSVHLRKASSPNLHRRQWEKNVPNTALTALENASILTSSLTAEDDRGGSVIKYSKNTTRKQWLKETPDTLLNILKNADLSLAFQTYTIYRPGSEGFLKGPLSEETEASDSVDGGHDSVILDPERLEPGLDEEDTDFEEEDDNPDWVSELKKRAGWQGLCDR
Procedure, shortened: (§1)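 Binding-panel profiling at one concentration, 1 uM in DMSO; values are % of DMSO control after subtracting the positive-control floor. Less than 35% means activity on that kinase.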

[2] = target: T2, kinases of the scanMAX Kinase assay panel (Homo sapiens, UniProt Q8WU08); settings: kinase YANK1; 1 uM in DMSO
T2 construct: purchased DiscoverX Co. (contract measurement) scanMAX Kinase assay panel
T2 sequence (Q8WU08 whole entry): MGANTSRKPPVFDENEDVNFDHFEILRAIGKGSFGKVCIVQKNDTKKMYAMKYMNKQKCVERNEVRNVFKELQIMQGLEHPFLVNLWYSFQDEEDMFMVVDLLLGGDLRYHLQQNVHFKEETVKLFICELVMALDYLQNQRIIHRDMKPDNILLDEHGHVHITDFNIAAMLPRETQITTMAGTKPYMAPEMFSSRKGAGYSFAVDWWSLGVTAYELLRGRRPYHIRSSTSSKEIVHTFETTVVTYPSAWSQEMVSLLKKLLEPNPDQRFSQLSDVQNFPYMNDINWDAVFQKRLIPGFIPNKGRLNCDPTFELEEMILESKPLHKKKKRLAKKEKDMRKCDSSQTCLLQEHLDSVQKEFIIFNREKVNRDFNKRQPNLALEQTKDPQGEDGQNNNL
Procedure, shortened: as §1

[3] = target: T3, kinases of the scanMAX Kinase assay panel (Homo sapiens, UniProt Q8N752); settings: CSNK1A1L; 1 uM
T3 construct: purchased DiscoverX Co. (contract measurement) scanMAX Kinase assay panel
T3 sequence (Q8N752 1-337): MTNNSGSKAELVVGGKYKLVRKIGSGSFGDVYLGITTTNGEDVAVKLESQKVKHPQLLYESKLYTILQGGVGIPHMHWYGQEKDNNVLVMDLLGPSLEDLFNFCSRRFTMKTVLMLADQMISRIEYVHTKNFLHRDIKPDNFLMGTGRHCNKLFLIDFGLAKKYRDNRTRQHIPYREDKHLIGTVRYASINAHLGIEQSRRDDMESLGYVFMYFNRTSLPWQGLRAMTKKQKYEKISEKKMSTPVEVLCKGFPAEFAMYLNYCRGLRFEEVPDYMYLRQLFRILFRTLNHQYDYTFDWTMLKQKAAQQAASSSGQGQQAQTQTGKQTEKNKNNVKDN
Procedure, shortened: as §1

[4] = target: T4, kinases of the scanMAX Kinase assay panel (Homo sapiens, UniProt Q96BR1); settings: kinase SGK3; 1 uM in DMSO
T4 construct: purchased DiscoverX Co. (contract measurement) scanMAX Kinase assay panel
T4 sequence (Q96BR1 1-496): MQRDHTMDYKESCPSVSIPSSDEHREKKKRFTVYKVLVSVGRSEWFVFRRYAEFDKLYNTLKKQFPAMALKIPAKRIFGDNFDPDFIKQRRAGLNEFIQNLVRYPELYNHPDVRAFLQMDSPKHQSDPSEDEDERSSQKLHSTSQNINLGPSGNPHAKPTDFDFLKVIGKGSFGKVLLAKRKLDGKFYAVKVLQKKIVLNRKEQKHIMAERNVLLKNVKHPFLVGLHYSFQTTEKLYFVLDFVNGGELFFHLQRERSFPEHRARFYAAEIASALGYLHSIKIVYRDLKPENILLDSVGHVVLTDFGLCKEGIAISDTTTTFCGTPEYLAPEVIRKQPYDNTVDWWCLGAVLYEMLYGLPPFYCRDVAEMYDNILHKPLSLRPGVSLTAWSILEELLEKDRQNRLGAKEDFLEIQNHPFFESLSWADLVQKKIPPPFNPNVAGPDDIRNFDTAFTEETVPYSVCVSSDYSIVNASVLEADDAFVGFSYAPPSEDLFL
Procedure, shortened: as §1

[5] = target: T5, kinases of the scanMAX Kinase assay panel (Homo sapiens, UniProt O00238); settings: BMPR1B; 1 uM
T5 construct: purchased DiscoverX Co. (contract measurement) scanMAX Kinase assay panel
T5 sequence (O00238 14-502): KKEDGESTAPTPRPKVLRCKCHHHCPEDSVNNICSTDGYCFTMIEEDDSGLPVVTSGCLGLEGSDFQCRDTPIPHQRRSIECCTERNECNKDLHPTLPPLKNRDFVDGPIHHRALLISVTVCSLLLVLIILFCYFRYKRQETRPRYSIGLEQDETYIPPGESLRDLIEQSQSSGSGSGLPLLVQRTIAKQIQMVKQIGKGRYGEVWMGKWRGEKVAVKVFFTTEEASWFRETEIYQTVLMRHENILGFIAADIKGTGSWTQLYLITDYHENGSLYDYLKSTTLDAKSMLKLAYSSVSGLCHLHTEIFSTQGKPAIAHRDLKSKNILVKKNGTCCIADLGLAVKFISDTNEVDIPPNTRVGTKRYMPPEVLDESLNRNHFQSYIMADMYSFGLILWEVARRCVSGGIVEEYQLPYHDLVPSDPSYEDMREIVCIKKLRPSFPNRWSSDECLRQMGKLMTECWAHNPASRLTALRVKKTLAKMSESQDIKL
Procedure, shortened: as §1

[6] = target: T6, kinases of the scanMAX Kinase assay panel (Homo sapiens, UniProt Q9H2K8); settings: kinase TAOK3; 1 uM in DMSO
T6 construct: purchased DiscoverX Co. (contract measurement) scanMAX Kinase assay panel
T6 sequence (Q9H2K8 1-898): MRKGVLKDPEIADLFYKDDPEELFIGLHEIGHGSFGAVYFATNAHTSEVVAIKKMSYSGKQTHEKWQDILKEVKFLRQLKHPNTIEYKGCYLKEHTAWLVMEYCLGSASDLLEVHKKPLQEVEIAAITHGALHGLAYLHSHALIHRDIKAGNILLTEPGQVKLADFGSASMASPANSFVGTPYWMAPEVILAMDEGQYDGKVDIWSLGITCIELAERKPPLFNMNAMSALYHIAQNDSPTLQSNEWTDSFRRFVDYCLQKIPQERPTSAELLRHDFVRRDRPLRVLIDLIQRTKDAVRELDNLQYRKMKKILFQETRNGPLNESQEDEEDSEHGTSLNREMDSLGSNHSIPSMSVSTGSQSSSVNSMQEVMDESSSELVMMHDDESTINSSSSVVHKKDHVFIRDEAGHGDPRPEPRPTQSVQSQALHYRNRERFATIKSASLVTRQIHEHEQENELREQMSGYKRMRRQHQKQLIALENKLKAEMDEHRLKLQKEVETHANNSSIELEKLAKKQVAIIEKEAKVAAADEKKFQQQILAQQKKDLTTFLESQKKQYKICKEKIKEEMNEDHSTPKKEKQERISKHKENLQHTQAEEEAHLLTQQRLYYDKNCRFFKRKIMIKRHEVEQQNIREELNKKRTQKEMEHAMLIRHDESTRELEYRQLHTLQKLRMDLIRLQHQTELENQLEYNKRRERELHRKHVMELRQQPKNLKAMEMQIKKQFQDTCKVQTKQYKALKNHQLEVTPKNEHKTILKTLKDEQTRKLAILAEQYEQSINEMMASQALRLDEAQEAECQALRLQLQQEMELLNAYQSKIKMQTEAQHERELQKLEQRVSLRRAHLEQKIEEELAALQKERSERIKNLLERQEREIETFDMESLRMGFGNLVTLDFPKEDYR
Procedure, shortened: as §1

Row | Compound | remaining binding at 1 µM [1] [%] | remaining binding at 1 µM [2] [%] | remaining binding at 1 µM [3] [%] | remaining binding at 1 µM [4] [%] | remaining binding at 1 µM [5] [%] | remaining binding at 1 µM [6] [%]
1 | CC1(Nc2nc(Nc3cnn([C@H]4CCN(C5COC5)C[C@@H]4F)c3Cl)nc3[nH]cc(C#N)c23)CC1 [Example 52, 2-((5-chloro-1-((3S,4S)-3-fluoro-1-(oxetane-3-yl)piperidine-4-yl)-1H-pyrazole-4-yl)amino)((1-methylcyclopropyl)amino)-7H-pyrrolo[2,3-d]pyrimidine-5-carbonitrile] | 96 | 88 | 0.85 | 70 | 22 | 8.6
2 | CNc1nc(Nc2ccc(C(=O)N3CCOCC3)cc2OC)nc2[nH]cc(C#N)c12 [Example 1, 2-((2-methoxy-4-(morpholine-4-carbonyl)phenyl)amino)-4-(methylamino)-7H-pyrrolo[2,3-d]pyrimidine-5-carbonitrile] | 70 | 76 | 34 | 63 | 98 | 81
3 | CCNc1nc(Nc2ccc(C(=O)N3CCC(N4CCOCC4)CC3)cc2OC)nc2[nH]cc(C(F)(F)F)c12 [Example 104, (4-((4-(ethylamino)-5-(trifluoromethyl)-7H-pyrrolo[2,3-d]pyrimidine-2-yl)amino)-3-methoxyphenyl)(4-morpholinopiperidine-1-yl)methanone] | 82 | 82 | 15 | 87 | 83 | 81
